Measurements published in article PMC4979481, “Functional characterization of the ectopically expressed olfactory receptor 2AT4 in human myelogenous leukemia” (Cell Death Discovery, 2016).

Target: T1, OR2AT4 (olfactory receptor 2AT4) (Homo sapiens, UniProt A6NND4)
T1 sequence (A6NND4 1-320): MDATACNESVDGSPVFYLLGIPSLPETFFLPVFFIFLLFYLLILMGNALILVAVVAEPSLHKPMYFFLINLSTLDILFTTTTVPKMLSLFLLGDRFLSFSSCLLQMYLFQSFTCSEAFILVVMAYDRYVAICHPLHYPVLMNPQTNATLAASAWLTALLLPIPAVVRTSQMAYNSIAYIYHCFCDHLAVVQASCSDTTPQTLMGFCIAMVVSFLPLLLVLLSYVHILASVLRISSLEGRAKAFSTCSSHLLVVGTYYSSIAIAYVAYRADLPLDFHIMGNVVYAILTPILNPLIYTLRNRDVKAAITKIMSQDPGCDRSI
Assay: calcium imaging dose-response in K562 cells (endogenous receptor), blocked by antagonist Phenirat
Type: cell-based

CC1=CCC(CCC(C)C(C)O)C1(C)C (stereo not shown) [Sandalore]
EC50: 265 µM
